Data published in PubChem BioAssay (NCI).
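Five compound concentrations were applied to cells in 96-well plates for 48 hours; endpoints were derived by simple linear interpolation of the resulting dose-response curve. TGI: total growth inhibition.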

Experiments:
Experiment in all cases: NCI tumour cell line growth inhibition, 48 h
LOX IMVI melanoma = system: LOX IMVI melanoma
U251 CNS = system: U251 CNS
HT29 colon = system: HT29 colon
HOP-62 NSCLC = system: HOP-62 NSCLC
OVCAR-5 ovarian = system: OVCAR-5 ovarian
SNB-78 CNS = system: SNB-78 CNS
DMS 273 small cell lung = system: DMS 273 small cell lung
UACC-257 melanoma = system: UACC-257 melanoma
SK-MEL-28 melanoma = system: SK-MEL-28 melanoma
COLO 205 colon = system: COLO 205 colon
MALME-3M melanoma = system: MALME-3M melanoma
HL-60(TB) leukemia = system: HL-60(TB) leukemia
OVCAR-4 ovarian = system: OVCAR-4 ovarian
SW-620 colon = system: SW-620 colon
TK-10 renal = system: TK-10 renal
SR leukemia = system: SR leukemia
A549 NSCLC = system: A549 NSCLC
A498 renal = system: A498 renal
SK-MEL-5 melanoma = system: SK-MEL-5 melanoma
NCI-H522 lung = system: NCI-H522 lung
SF-295 CNS = system: SF-295 CNS
OVCAR-3 ovarian = system: OVCAR-3 ovarian
HCT-15 colon = system: HCT-15 colon
OVCAR-8 ovarian = system: OVCAR-8 ovarian
ACHN renal = system: ACHN renal
XF 498 CNS = system: XF 498 CNS
SN12C renal = system: SN12C renal
HCT-116 colon = system: HCT-116 colon
K-562 leukemia = system: K-562 leukemia
EKVX NSCLC = system: EKVX NSCLC
SK-MEL-2 melanoma = system: SK-MEL-2 melanoma
DMS 114 small cell lung = system: DMS 114 small cell lung
UO-31 renal = system: UO-31 renal
UACC-62 melanoma = system: UACC-62 melanoma
KM12 colon = system: KM12 colon
SF-268 CNS = system: SF-268 CNS
M19-MEL melanoma = system: M19-MEL melanoma
LXFL 529 NSCLC = system: LXFL 529 NSCLC
SF-539 CNS = system: SF-539 CNS
RXF-631 renal = system: RXF-631 renal
CCRF-CEM leukemia = system: CCRF-CEM leukemia
RXF 393 renal = system: RXF 393 renal
SNB-75 CNS = system: SNB-75 CNS
M14 melanoma = system: M14 melanoma
IGROV1 ovarian = system: IGROV1 ovarian
SK-OV-3 ovarian = system: SK-OV-3 ovarian
CAKI-1 renal = system: CAKI-1 renal
SNB-19 CNS = system: SNB-19 CNS
NCI-H226 lung = system: NCI-H226 lung
KM20L2 colon = system: KM20L2 colon
HOP-18 NSCLC = system: HOP-18 NSCLC
786-0 renal = system: 786-0 renal
RPMI-8226 leukemia = system: RPMI-8226 leukemia
DLD-1 colon = system: DLD-1 colon
HOP-92 NSCLC = system: HOP-92 NSCLC
NCI-H460 lung = system: NCI-H460 lung
MOLT-4 leukemia = system: MOLT-4 leukemia
HCC-2998 colon = system: HCC-2998 colon
NCI-H23 lung = system: NCI-H23 lung

Measured: TGI

Nc1nc(=S)c2c(ncn2CC(O)CO)[nH]1 (centres undefined)
not listed: MOLT-4 leukemia | HCC-2998 colon | NCI-H23 lung
> 100 µM: all other assays above

NC1CCC[C@H]1O (some centres undefined)
not listed: OVCAR-5 ovarian | SR leukemia | LXFL 529 NSCLC | CAKI-1 renal
> 100 µM: all other assays above

C[C@]12Cc3cn[nH]c3C(=O)C1CC[C@@H]1C2CC[C@@]2(C)C1CC[C@]2(C)O (some centres undefined)
not listed: SR leukemia
> 100 µM: all other assays above
